Assay results reported in article PMC10056986 (Pharmaceuticals, 2023).

Assays:
[1] = target: T1, CCKa (Homo sapiens, UniProt P32238); test: cell-based
T1 sequence (P32238 1-428): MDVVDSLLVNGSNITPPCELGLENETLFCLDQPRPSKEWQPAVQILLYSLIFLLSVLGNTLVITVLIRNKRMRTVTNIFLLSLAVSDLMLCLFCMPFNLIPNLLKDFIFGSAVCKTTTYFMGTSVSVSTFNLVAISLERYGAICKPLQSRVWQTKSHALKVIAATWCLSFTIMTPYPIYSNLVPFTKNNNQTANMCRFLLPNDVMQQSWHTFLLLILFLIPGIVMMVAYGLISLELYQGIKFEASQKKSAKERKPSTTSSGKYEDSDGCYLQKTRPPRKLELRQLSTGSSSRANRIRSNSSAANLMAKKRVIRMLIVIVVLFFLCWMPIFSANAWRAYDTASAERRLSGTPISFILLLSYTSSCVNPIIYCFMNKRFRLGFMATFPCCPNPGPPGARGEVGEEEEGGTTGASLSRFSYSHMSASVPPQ

[2] = in vitro; settings: human
[3] = target: Aurora A (Homo sapiens, UniProt O14965); test: biochemical
Chain of Aurora A (O14965 whole entry): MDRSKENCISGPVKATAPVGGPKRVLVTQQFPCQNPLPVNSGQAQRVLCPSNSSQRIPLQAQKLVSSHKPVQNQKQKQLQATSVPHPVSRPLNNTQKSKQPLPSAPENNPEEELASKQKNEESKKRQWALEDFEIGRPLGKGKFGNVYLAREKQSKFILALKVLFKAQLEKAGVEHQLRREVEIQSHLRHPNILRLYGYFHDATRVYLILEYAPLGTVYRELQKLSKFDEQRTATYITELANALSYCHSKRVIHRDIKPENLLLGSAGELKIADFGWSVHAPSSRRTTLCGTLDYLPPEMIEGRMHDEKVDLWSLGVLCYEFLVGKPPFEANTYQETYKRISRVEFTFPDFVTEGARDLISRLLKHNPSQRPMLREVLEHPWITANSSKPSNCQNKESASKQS

[4] = target: T2, D2 (Homo sapiens, UniProt P14416); test: cell-based
T2 sequence (P14416 whole entry): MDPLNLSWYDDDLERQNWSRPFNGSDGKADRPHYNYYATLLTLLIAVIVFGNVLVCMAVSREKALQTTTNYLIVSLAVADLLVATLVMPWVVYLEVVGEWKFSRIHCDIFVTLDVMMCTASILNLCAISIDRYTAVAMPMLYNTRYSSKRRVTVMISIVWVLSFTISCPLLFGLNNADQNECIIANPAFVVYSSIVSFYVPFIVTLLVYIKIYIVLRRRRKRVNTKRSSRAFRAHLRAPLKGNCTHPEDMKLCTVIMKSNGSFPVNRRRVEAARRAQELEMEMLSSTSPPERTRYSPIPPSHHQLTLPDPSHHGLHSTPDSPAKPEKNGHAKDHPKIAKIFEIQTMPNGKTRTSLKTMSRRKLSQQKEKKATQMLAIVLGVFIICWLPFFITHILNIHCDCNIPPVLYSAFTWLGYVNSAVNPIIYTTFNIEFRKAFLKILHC

[5] = target: T1, CCKa; test: cell-based; remark: listed apart in the source
[6] = in vitro; settings: African green monkey
[7] = target: TNIK (Homo sapiens, UniProt Q9UKE5); test: biochemical
[8] = target: T2, D2; test: cell-based; remark: listed apart in the source
[9] = in vivo; settings: both, beagle, dog
[10] = target: Alpha1a (Homo sapiens, UniProt P35348); test: cell-based
Chain of Alpha1a (P35348 whole entry): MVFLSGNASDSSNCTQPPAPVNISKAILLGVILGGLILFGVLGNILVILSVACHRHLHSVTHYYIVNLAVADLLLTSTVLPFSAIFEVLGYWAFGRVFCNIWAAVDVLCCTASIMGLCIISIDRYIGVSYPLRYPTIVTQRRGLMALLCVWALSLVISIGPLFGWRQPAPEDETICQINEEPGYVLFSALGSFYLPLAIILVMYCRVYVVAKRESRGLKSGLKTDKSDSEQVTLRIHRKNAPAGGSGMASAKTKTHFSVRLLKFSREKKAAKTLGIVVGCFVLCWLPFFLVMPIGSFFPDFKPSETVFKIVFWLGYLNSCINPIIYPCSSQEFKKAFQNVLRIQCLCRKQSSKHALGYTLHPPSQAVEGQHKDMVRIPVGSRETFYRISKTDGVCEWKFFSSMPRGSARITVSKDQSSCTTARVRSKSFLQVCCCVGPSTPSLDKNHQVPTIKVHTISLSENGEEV

[11] = target: H2 (Homo sapiens, UniProt P25021); test: cell-based
Chain of H2 (P25021 whole entry): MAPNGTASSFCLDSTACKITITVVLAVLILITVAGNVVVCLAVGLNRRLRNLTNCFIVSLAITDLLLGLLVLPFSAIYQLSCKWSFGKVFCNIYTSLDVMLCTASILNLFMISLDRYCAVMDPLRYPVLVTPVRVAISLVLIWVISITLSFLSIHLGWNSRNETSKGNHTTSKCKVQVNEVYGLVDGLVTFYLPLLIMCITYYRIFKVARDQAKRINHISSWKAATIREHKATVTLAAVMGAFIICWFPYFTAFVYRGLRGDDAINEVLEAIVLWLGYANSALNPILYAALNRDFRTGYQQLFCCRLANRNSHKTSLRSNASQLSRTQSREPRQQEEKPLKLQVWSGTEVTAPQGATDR

[12] = system: HPIV-3 C243; test: microbe, parasite or virus in culture; format: cell-based, human parainfluenza virus type 3; settings: Human respirovirus 3, LLC-MK2, read-out: EC50 for Virus
[13] = target: op-kappa (Homo sapiens, UniProt P41145); test: cell-based
Chain of op-kappa (P41145 whole entry): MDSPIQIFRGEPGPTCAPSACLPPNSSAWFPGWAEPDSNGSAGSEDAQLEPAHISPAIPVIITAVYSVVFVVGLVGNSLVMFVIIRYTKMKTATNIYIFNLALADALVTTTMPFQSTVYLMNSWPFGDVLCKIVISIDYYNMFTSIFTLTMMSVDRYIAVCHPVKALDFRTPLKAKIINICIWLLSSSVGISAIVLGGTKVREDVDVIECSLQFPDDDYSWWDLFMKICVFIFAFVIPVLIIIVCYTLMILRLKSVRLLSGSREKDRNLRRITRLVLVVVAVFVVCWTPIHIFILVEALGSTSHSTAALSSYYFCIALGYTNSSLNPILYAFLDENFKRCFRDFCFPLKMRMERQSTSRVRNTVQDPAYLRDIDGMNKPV

[14] = target: H1 (Homo sapiens, UniProt P35367); test: cell-based
Chain of H1 (P35367 whole entry): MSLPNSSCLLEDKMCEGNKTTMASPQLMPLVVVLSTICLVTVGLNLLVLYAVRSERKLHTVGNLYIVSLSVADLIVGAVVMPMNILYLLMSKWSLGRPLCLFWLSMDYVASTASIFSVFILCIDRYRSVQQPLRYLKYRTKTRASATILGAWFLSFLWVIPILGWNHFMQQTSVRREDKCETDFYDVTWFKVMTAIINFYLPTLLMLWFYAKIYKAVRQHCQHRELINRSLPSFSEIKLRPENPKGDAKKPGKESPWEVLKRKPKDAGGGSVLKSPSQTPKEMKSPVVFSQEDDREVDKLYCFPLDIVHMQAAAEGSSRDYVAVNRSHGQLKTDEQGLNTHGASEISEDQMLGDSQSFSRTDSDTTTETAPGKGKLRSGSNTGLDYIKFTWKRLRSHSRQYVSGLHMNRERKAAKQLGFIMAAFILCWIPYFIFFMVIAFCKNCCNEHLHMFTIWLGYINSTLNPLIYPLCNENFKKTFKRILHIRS

[15] = target: M1 (Homo sapiens, UniProt P11229); test: cell-based
Chain of M1 (P11229 whole entry): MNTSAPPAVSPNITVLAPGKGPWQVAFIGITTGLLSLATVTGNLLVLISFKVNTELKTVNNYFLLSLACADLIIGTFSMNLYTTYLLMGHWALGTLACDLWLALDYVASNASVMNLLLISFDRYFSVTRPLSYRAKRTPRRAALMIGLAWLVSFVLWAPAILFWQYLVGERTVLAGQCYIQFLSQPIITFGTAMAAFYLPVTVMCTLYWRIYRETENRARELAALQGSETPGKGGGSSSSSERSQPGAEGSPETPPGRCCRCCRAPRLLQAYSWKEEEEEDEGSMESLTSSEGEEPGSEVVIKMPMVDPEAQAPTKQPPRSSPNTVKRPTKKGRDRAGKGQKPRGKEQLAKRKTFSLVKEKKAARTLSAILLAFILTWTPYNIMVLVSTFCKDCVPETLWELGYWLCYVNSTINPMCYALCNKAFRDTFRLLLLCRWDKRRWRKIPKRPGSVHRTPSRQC

[16] = system: A/Qingyuan/GIRD01/2017 (H7N9); test: microbe, parasite or virus in culture; format: cell-based, avian influenza virus; settings: Influenza A virus, H7N9, MDCK, read-out: IC50 (mean ± SD)
[17] = target: LCK (Homo sapiens, UniProt P06239); test: biochemical
[18] = target: DYRK3 (Homo sapiens, UniProt O43781); test: biochemical
[19] = system: HBV; test: microbe, parasite or virus in culture; format: cell-based; settings: Hepatitis B virus, HepG2.2.15, read-out: EC50 for Virus
[20] = target: op-delta (Homo sapiens, UniProt P41143); test: cell-based
Chain of op-delta (P41143 whole entry): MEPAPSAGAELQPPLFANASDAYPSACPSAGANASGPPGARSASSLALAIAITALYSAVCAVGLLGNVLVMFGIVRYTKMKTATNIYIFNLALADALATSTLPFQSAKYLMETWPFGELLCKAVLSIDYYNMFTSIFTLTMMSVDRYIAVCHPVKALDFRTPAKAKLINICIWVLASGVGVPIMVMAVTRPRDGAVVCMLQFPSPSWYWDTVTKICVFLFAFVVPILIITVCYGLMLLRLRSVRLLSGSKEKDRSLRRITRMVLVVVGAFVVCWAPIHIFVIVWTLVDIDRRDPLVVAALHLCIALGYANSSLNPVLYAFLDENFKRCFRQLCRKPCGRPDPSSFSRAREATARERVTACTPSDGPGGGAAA

[21] = system: Influenza virus A/Mal/302/54 (H1N1); test: microbe, parasite or virus in culture; format: cell-based; settings: H1N1, MDCK, read-out: EC50 (mean ± SD)
[22] = system: Influenza virus A/PR/8/34 (H1N1); test: microbe, parasite or virus in culture; format: cell-based; settings: H1N1|PR/8, MDCK, read-out: EC50 (mean ± SD)
[23] = in vivo; settings: female, BALB/c, mouse, po
[24] = target: MAP4K4 (Homo sapiens, UniProt O95819); test: biochemical
[25] = system: Influenza virus A/Weiss/43(H1N1); test: microbe, parasite or virus in culture; format: cell-based; settings: H1N1, MDCK, read-out: EC50 (mean ± SD)
[26] = target: Alpha2a (Homo sapiens, UniProt P08913); test: cell-based
Chain of Alpha2a (P08913 whole entry): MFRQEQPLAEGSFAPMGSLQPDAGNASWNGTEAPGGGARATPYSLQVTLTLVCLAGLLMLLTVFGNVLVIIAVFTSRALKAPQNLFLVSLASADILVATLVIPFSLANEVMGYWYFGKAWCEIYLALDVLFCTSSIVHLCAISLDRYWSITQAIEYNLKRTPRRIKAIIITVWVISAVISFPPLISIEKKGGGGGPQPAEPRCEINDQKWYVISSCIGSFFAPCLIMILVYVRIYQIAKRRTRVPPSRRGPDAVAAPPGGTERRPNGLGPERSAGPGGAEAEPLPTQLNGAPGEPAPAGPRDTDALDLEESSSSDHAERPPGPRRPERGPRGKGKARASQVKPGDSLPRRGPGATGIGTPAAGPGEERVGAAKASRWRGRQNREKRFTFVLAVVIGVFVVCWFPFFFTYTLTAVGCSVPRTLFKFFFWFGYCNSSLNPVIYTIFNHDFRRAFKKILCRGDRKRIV

[27] = target: hERG potassium channel (Homo sapiens, UniProt Q12809); test: in vitro
[28] = system: RSV long; test: microbe, parasite or virus in culture; format: cell-based, respiratory syncytial virus; settings: human respiratory syncytial virus, HEp-2, read-out: EC50 for Virus
[29] = target: op-mu (Homo sapiens, UniProt P35372); test: cell-based
Chain of op-mu (P35372 whole entry): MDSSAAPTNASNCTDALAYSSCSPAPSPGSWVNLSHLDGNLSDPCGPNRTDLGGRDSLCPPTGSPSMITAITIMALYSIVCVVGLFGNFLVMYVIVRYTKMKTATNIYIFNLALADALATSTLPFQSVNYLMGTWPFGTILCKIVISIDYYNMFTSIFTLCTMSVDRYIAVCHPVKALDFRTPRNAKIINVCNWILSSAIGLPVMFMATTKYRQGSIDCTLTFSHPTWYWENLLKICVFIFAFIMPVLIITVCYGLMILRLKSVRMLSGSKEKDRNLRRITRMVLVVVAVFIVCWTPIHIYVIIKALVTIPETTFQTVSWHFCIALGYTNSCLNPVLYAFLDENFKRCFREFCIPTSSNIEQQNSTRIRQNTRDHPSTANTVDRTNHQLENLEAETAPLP

[30] = target: MST4 (Homo sapiens, UniProt Q9P289); test: biochemical
[31] = target: M2 (Homo sapiens, UniProt P08172); test: cell-based
Chain of M2 (P08172 whole entry): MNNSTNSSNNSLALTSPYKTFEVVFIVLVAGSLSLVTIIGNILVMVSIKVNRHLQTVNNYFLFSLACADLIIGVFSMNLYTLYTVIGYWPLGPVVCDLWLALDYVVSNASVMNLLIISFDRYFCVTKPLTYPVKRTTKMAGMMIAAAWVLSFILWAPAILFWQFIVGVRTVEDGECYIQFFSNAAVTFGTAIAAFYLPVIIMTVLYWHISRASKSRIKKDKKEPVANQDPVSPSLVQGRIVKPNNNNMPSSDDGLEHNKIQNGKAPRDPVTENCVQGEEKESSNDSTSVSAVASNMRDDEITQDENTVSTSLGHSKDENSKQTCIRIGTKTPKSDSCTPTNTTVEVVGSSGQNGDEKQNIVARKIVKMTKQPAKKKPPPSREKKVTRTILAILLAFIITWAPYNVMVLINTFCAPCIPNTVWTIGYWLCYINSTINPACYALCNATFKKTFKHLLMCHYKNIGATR

[32] = 10,000 nM, read-out: Inhibition at Maximum Concentration (%)

O=C(O)[C@H]1C2CCC(CC2)[C@@H]1Nc1nc(-c2n[nH]c3ncc(F)cc23)nc(C2CC2)c1F [ZSP1273] showed an IC50 [1] greater than 10 µM, an inhibition at 10 µM [1, 32] of -17.6% and a CC50 [2] greater than 10 µM. The IC50 [3] was 0.527 µM, the EC50 [4] was greater than 12 µM and the “Activity at Maximum Concentration (%)” value ([4]; 12,000 nM) was −0.06%. The EC50 [5] was greater than 12 µM, the “Activity at Maximum Concentration (%)” value ([5]; 12,000 nM) was −4.4% and the CC50 [6] was greater than 10 µM. It also gave an IC50 [7] greater than 10 µM, an IC50 [8] greater than 10 µM and an inhibition at 10 µM [8, 32] of 13.6%. For the same compound, the AUC(0-t) ([9]; iv, 1 mg/kg) was 791 ± 329 ng·h/mL, the Vd ([9]; iv, 1 mg/kg) was 0.47 ± 0.0848 L/kg and the clearance ([9]; iv, 1 mg/kg) was 25.8 ± 7.6 mL/min/kg. For the same compound, the half-life ([9]; iv, 1 mg/kg) was 27.4 ± 10.1 min, the AUC(0-t) ([9]; po, 1 mg/kg) was 211 ± 62.4 ng·h/mL and the Cmax ([9]; po, 1 mg/kg) was 292 ± 78.2 ng/mL. For the same compound, the Tmax ([9]; po, 1 mg/kg) was 27.5 ± 6.12 min, the bioavailability ([9]; po, 1 mg/kg) was 26.7% and the AUC(0-t) ([9]; po, 5 mg/kg) was 1210 ± 641 ng·h/mL. The Cmax ([9]; po, 5 mg/kg) was 1450 ± 800 ng/mL, the Tmax ([9]; po, 5 mg/kg) was 32.5 ± 14.8 min and the AUC(0-t) ([9]; po, 15 mg/kg) was 5030 ± 1960 ng·h/mL. For the same compound, the Cmax ([9]; po, 15 mg/kg) was 5800 ± 2150 ng/mL, the Tmax ([9]; po, 15 mg/kg) was 27.5 ± 17.5 min and the EC50 [10] was greater than 12 µM. The “Activity at Maximum Concentration (%)” value ([10]; 12,000 nM) was −2.93%, the IC50 [11] was greater than 10 µM and the inhibition at 10 µM [11, 32] was 42.4%. The EC50 [12] was greater than 10 µM, the IC50 [13] was greater than 10 µM and the inhibition at 10 µM [13, 32] was -27.8%. The EC50 [14] was greater than 12 µM, the “Activity at Maximum Concentration (%)” value ([14]; 12,000 nM) was 0.73% and the EC50 [15] was greater than 12 µM. The “Activity at Maximum Concentration (%)” value ([15]; 12,000 nM) was −3.22%, the IC50 [16] was 0.000777 ± 0.000427 µM and the IC50 [17] was greater than 10 µM. The IC50 [18] was greater than 10 µM, the EC50 [19] was greater than 10 µM and the EC50 [20] was greater than 12 µM. The “Activity at Maximum Concentration (%)” value ([20]; 12,000 nM) was −10.64%, the EC50 [21] was 0.028 ± 0.011 nM and the EC50 [22] was 0.042 ± 0.01 nM. The AUC(0-t) ([23]; 3 mg/kg) was 1040 ng·h/mL, the Cmax ([23]; 3 mg/kg) was 439 ng/mL and the AUC(0-t) ([23]; 10 mg/kg) was 6190 ng·h/mL. The Cmax ([23]; 10 mg/kg) was 3010 ng/mL, the AUC(0-t) ([23]; 30 mg/kg) was 56000 ng·h/mL and the Cmax ([23]; 30 mg/kg) was 23700 ng/mL. The IC50 [24] was greater than 10 µM, the EC50 [25] was 0.012 ± 0.002 nM and the IC50 [26] was greater than 10 µM. For the same compound, the inhibition at 10 µM [26, 32] was -9.3%, the inhibition at 40 µM [27] was less than 50% and the EC50 [28] was greater than 10 µM. For the same compound, the IC50 [29] was greater than 10 µM, the inhibition at 10 µM [29, 32] was -24.5% and the IC50 [30] was greater than 10 µM. For the same compound, the IC50 [31] was greater than 10 µM and the inhibition at 10 µM [31, 32] was -55.7%.
